Patent US10363230B2, “6-shogaol derivatives and activities thereof” (North Carolina Agricultural and Technical State University, priority 2017, dated 2019)
Several values for one entry are separate records, joined by “and”; a condition that tells them apart may be missing. Equal values may be shown once.

Tests used:
Type in all cases: in vivo
[1] = test system: Nrf2; experiment: Nrf2 reporter activity by Tg(gstp1:GFP) fluorescence in transgenic zebrafish embryos; conditions: olfactory epithelia, 24-hour treatment from 1 dpf to 2 dpf, 5 μM (FIG. 2 legends), ratio to DMSO control, mean ± SD, at least 10 embryos
Experimental: Zebrafish AB transgenic strains Tg(gstp1:GFP) were maintained in a Pentair Aquatic Ecosystem (Apopka, Fla., United States of America) fish housing unit with 14 h light/10 h dark cycle (see Tsujita, T., Li, L., Nakajima, H., Iwamoto, N., Nakajima-Takagi, Y., Ohashi, K., Kawakami, K., Kumagai, Y., Freeman, B. A., Yamamoto, M., and Kobayashi, M. (2011) “Nitro-fatty acids and cyclopentenone prostaglandins share strategies to activate the Keap1-Nrf2 system: a study using green fluorescent protein transgenic zebrafish.” Genes Cells 16, 46-57). The fish embryos were maintained at 28.5° C. in 0.3× Danieau's solution (19.3 mM NaCl, 0.23 mM KCl, 0.13 mM MgSO4, 0.2 mM Ca(NO3)2, 1.7 mM HEPES, pH 7.0) containing 30 μg/ml phenylthiourea (PTU) to inhibit pigmentation. Tg(gstp1:GFP) cross with AB wild-type strain fluorescence embryos were used for the experiment. Zebrafish embryos were washed, dechorionated and anaesthetized before observations, and fluorescence imaging for analysis.
Transgenic zebrafish embryos at 1 day-post-fertilization (dpf) were dechorionated and placed in Petri dishes containing different chemicals diluted in 0.3× Danieau's solution containing PTU. The chemical stock was dissolved in DMSO at 5 mM concentration.
An Olympus MVX10 Fluorescence Macroscope (Olympus, Center Valley, Pa., United States of America) equipped with a Hamamatsu C9300-221 high-speed digital CCD camera (Hamamatsu City, Japan) was used for fluorescence microscopy. Tg(gstp1:GFP) fluorescent embryos were anaesthetized in tricaine and imaged at 2 dpf. MetaMorph Basic software (Olympus, Center Valley, Pa., United States of America) was used for image acquisition and analysis.
The fluorescence intensity of the olfactory neural epithelia was quantitated using MetaMorph Basic software. In brief, GFP expression in the olfactory regions of Tg(gstp1:GFP) embryos treated with various chemicals was measured after 24-hour treatment from 1 dpf to 2 dpf. The GFP induction was detectable by fluorescence signal at the area of the olfactory epithelia in the anterior of the head region, the intensity was measured using an area of a circle of 60 pixel diameter of the fluorescence olfactory epithelia subtracted by a background non-fluorescence area next to the zebrafish embryo. Both the left and right olfactory epithelia were measured to give an average fluorescence value. The values are an average of measurements from at least 10 embryos.

[2] = Biotransformation of xenobiotics in zebrafish embryos (LC/MS); conditions: 5 μM in incubation medium, 8 hpf to 24 hpf
Experimental: Fifty zebrafish embryos at the 8 hour-post-fertilization (hpf) stage were incubated at 28.5° C. in 0.3× Danieau's solution (19.3 mM NaCl, 0.23 mM KCl, 0.13 mM MgSO4, 0.2 mM Ca(NO3)2, 1.7 mM HEPES, pH 7.0) with or without 5 μM 18 and 25-27, respectively. At 24 hpf, embryos were dechorionated manually and the chorions were carefully removed one by one from the culture medium. The zebrafish embryos were harvested and kept at −80° C. till analyzed by LC/MS.
200 μL Sodium acetate buffer solution (pH 5.0) was added to 50 zebrafish embryos. Samples were homogenized for 90 s by an Omni Bead Ruptor Homogenizer (Kennesaw, Ga., United States of America). 10 μL 10% ascorbic acid and 300 μL sodium acetate buffer were added to the homogenates. The mixture was incubated in the presence of β-glucuronidase (250 U) and sulfatase (3 U) at 37° C. for 45 min, and then 600 μL MeOH with 1% acetic acid was added. The resulting mixture was vortexed for 30 s and then centrifuged at 17000 g for 10 min. The supernatant was removed and evaporated under a gentle stream of nitrogen. The residue was reconstituted in 150 μL 90% MeOH with 0.2% acetic acid (AA), and 10 μL was analyzed directly by LC/MS.
(§1) LC/MS analysis was carried out with a Thermo-Finnigan Spectra System, which consisted of an Accela high speed MS pump, an Accela refrigerated autosampler, and an LCQ Fleet ion trap mass detector (Thermo Electron, San Jose, Calif., United States of America) incorporated with an electrospray ionization (ESI) interface. A Gemini-NX C18 column (150 mm×4.6 mm i.d., 5 μm; Phenomenex, Torrance, Calif., United States of America) was used for separation at a flow rate of 0.3 mL/min. The column was eluted with 100% A (5% aqueous methanol with 0.2% formic acid) for 1 min, followed by linear increases in B (95% aqueous methanol with 0.2% formic acid) to 55% from 1 to 4 min, to 85% from 4 to 25 min, then to 100% B from 25 to 30 min, and then with 100% B from 30 to 35 min. The column was then re-equilibrated with 100% A for 5 min. The LC eluent was introduced into the ESI interface. The positive ion polarity mode was set for the ESI source with the voltage on the ESI interface maintained at approximately 4.6 kV. Nitrogen gas was used as the sheath gas and auxiliary gas. Optimized source parameters, including capillary temperature (260° C.), sheath gas flow rate (31 arbitrary units), auxiliary gas flow rate (16 units), tube lens (34 V), and capillary voltage 9 V, were tuned using authentic samples. The collision-induced dissociation (CID) was conducted with an isolation width 2 Da and normalized collision energy of 35 for MS^2. The mass range was measured from 100 to 800 m/z. Data acquisition was performed with Xcalibur version 2.0 (Thermo Electron, San Jose, Calif., United States of America).

[3] = Cysteine conjugates in mouse urine after oral gavage (LC/MS); conditions: oral gavage 200 mg/kg, urine collected in 24 h
Experimental: as §1, with “Optimized source parameters, including capillary temperature (260° C.), sheath gas flow rate (31 arbitrary units), auxiliary gas flow rate (16 units), tube lens (34 V), and capillary voltage 9 V, were tuned using authentic samples. The collision-induced dissociation (CID) was conducted with an isolation width 2 Da and normalized collision energy of 35 for MS^2.” left out, “Data acquisition was performed with Xcalibur version 2.0 (Thermo Electron, San Jose, Calif., United States of America).” left out
Enzymatic deconjugation of mouse urine was performed as described previously with slight modifications. […] The resulting suspension was centrifuged at 17,000 g for 5 min, and 10 μL of supernatant was analyzed directly by LC/MS.

Structure (SMILES)	Ratio/CTL, Tg(gstp1:GFP) fluorescence signal (times higher than vehicle) [1]	also measured
CCCCCC(CC(=O)CCc1ccc(O)c(OC)c1)SCC(N)C(=O)O (stereo not shown) [Compound 6]	1.06 ± 0.20	–
CCCCC/C=C/C(=O)/C=C/c1cccc(C(F)(F)F)c1F [Compound 23]	1.63 and 1.63 ± 0.17	–
CCCCC/C=C/C(=O)/C=C/c1ccccc1C(F)(F)F [Compound 24]	1.55 and 1.55 ± 0.67	–
CCCCCC(CC(=O)CCc1ccc(O)c(OC)c1)SC (stereo not shown) [Compound 8]	1.16 ± 0.47	–
CCCCCCC[C@H](O)CC(=O)CCc1ccc(O)c(OC)c1 [Compound 12, reference compound]	1.65 and 1.65 ± 0.29	–
CCCCC/C=C/C(=O)CCc1ccc(O)c(OC)c1 [Compound 1, [6]-shogaol, reference compound]	2.40 ± 0.54	Ratio/CTL, Tg(gstp1:GFP) fluorescence signal (times higher than vehicle) ([1]; listed as 6S): 2.40
CCCCCC(CC(O)CCc1ccc(O)c(OC)c1)SC (stereo not shown) [Compound 17]	0.72 ± 0.14	–
CCCCC/C=C/C(=O)/C=C/c1cccc(C(F)(F)F)c1 [Compound 22]	1.28 and 1.28 ± 0.10	–
CCCCC/C=C/C(=O)/C=C/c1cc(OC)c(O)c(C(F)(F)F)c1 [Compound 21]	2.18 and 2.18 ± 0.53	–
CCCCC/C=C/C(=O)/C=C/c1ccc(O)c(O)c1 [Compound 26]	–	Cysteine conjugates (metabolites) detected in zebrafish embryos [2]: Three conjugates 37, 37b, and 38
CCCCCC(CC(O)CCc1ccc(O)c(OC)c1)SCC(N)C(=O)O (stereo not shown) [Compound 15]	1.08 ± 0.65	–
CCCCCCCC(=O)CCc1ccc(O)c(OC)c1 [Compound 5]	1.27 and 1.27 ± 0.29	–
CCCCC/C=C/C(=O)/C=C/c1cc(O)c(O)c(OC)c1 [Compound 20]	1.26 and 1.26 ± 0.14	–
CCCCCC(CC(=O)CCc1ccc(O)c(OC)c1)OC (stereo not shown) [Compound 10]	0.96 ± 0.24	–
CCCCCC=CC(O)CCc1ccc(O)c(OC)c1 (stereo not shown) [Compound 4]	1.13 and 1.13 ± 0.21	–
CCCCCC(CC(=O)CCc1ccc(O)c(OC)c1)SCC(NC(C)=O)C(=O)O (stereo not shown) [Compound 7]	1.04 ± 0.05	–
CCCCCC(CC(O)CCc1ccc(O)c(OC)c1)SCC(NC(C)=O)C(=O)O (stereo not shown) [Compound 16]	0.78 ± 0.12	–
CCCCCCCC(=O)/C=C/c1ccc(O)c(OC)c1 [Compound 19]	3.29 and 3.29 ± 0.35	–
CCCCC/C=C/C(=O)/C=C/c1ccc(O)c(OC)c1 [Compound 18]	–	Cysteine conjugates (metabolites) detected in mouse urine [3]: conjugate 35 was predominantly present; Cysteine conjugates (metabolites) detected in zebrafish embryos [2]: conjugate 35 was predominantly present
CCCCCCCCC/C=C/C(=O)CCc1ccc(O)c(OC)c1 [Compound 3, reference compound]	1.53 ± 0.53	Ratio/CTL, Tg(gstp1:GFP) fluorescence signal (times higher than vehicle) ([1]; listed as 10S): 1.53
CCCCC[C@H](O)CC(=O)CCc1ccc(O)c(OC)c1 [Compound 11, [6]-gingerol, reference compound]	1.87 and 1.87 ± 0.51	–
CCCCCCCC(=O)CCc1ccc(O)c(O)c1 [Compound 25]	–	Cysteine conjugates (metabolites) detected in zebrafish embryos [2]: conjugates 37 and 37b were exclusively identified
CCCCCCC/C=C/C(=O)CCc1ccc(O)c(OC)c1 [Compound 2, reference compound]	1.67 ± 0.55	Ratio/CTL, Tg(gstp1:GFP) fluorescence signal (times higher than vehicle) ([1]; listed as 8S): 1.67
CCCCCCCCC[C@H](O)CC(=O)CCc1ccc(O)c(OC)c1 [Compound 13, reference compound]	1.29 and 1.29 ± 0.40	–
